Key:
CYP2C9 = CYP2C9 (Homo sapiens, UniProt P11712); assay: In vitro inhibition of human cytochrome P450 enzymes: CYP2C9 (dibenzylfluorescein fluorometric assay)
Protocol: (§1) In Vitro Inhibition of Human Cytochrome P45 Enzymes
(§2) Solution A: NADPH-Regenerating System
(§3) To a glass tube on ice were added sequentially: Water (8 mL) in NADP+ (20 mg), glucose-6-phosphate (20 mg), magnesium chloride hexahydrate (13.3 mg) and glucose-6-phosphate dehydrogenase (60 units).
To a glass tube on ice were added sequentially: 0.5 M KH2PO4 (pH 7.4, 2.4 mL), water (8.988 mL), CYP2C9 (600 μL of 1 picomol/microliter), and dibenzylfluorescein (2 mM in 100% acetonitrile, 12 microliter).
(§4) Solution A was transferred to a 96-well black plate (80 microliter per well), followed by various concentrations of a solution of Compound in 10% acetonitrile-water (20 microliter per well). The reaction was initiated by adding 100 microliter of solution B to each well of the 96-well plate. The plate was incubated for 40 minutes at 37° C. in the dark. The reaction was stopped by adding 75 microliters of stop buffer (2 N NaOH) to each well, and incubating at 37° C. for 2 hours. The end point was measured in a fluorometer plate reader at λex=485 nm and λem=538 nm.

CYP3A4 = CYP3A4 (Homo sapiens, UniProt P08684); details: 10 min, pH 7.4
Chain of CYP3A4 (P08684 whole entry): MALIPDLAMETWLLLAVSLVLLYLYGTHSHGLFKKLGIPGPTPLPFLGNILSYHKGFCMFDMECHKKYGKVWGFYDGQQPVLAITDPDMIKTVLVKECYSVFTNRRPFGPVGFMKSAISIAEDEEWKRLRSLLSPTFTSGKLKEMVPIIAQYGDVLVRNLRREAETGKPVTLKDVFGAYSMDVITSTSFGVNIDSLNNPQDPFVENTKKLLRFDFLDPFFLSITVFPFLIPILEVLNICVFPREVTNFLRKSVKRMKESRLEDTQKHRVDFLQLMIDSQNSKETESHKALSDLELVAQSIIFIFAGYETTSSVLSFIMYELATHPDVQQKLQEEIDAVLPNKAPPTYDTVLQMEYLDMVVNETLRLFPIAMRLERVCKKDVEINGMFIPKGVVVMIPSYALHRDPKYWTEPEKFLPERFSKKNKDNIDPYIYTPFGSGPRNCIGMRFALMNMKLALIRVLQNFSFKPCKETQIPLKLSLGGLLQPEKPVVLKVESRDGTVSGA
Protocol: as §1, §2, §3
To a glass tube on ice were added sequentially: 0.5 M KH2PO4 (pH 7.4, 9.6 mL), water (2.328 mL), CYP3A4 (60 μL of 1 picomol/microliter), and dibenzylfluorescein (2 mM in 100% acetonitrile, 12 microliter).
as §4, with “20%” for “10%”, “10” for “40”, “The reaction was stopped by adding 75 microliters of stop buffer (2 N NaOH) to each well, and incubating at 37° C. for 2 hours.” left out

Chain of CYP2C9 (P11712 whole entry): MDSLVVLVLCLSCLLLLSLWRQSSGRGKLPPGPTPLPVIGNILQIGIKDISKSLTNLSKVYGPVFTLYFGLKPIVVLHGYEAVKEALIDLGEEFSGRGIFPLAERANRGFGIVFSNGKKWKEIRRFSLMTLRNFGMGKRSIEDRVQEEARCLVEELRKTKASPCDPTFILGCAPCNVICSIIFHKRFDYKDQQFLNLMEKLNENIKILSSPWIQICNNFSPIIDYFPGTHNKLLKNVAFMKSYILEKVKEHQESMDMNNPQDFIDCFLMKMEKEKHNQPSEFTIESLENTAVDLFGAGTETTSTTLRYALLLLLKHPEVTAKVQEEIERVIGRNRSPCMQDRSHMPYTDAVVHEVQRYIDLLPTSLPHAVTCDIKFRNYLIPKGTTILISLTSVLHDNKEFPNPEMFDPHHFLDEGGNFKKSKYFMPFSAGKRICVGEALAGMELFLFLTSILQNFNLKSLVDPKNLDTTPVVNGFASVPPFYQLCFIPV

## [2H]C1([2H])Oc2cc(C)c(CC(=O)c3sccc3S(=O)(=O)Nc3onc(C)c3Cl)cc2O1 [Example 2, d2-2-[2-(6-Methyl-benzo[1,3]dioxol-5-yl)-acetyl]-thiophene-3-sulfonic acid (4-chloro-3-methyl-isoxazol-5-yl)-amide]
CYP2C9
  IC50: 320 nM
CYP2C9; human, 40 min, pH 7.4
  times the amount of deuterated compound to inhibit CYP2C9 as compared to the non-isotopically enriched drug: 3.2 times
CYP3A4
  times the amount of deuterated compound to inhibit CYP3A4 as compared to the non-isotopically enriched drug: 2.3 times

## Cc1cc2c(cc1CC(=O)c1sccc1S(=O)(=O)Nc1onc(C)c1Cl)OCO2 [sixtaxsentan, 2-[2-(6-Methyl-benzo[1,3]dioxol-5-yl)-acetyl]-thiophene-3-sulfonic acid (4-chloro-3-methyl-isoxazol-5-yl)-amide, reference compound]
CYP2C9
  IC50: 100 nM
